Results published in publication PMC7898037, “Improving mitochondria and ER stability helps eliminate upper motor neuron degeneration that occurs due to mSOD1 toxicity and TDP‐43 pathology” (Clinical and Translational Medicine, 2021).

Assays:
[1] = tested on: prpTDP‐43^A315T‐UeGFP mice; experiment: Hanging wire test (max 60 s), prpTDP‐43^A315T‐UeGFP mice; assay type: in vivo; details: for wire hanging, Predicted (LS) mean: prpTDP-43A315T-UeGFP (NU-9 100 mg/kg/day); for wire hanging, Average: prpTDP-43A315T-UeGFP, NU-9 100 mg/kg/day po
Protocol: (§1) hSOD1^G93A‐UeGFP, prpTDP‐43^A315T‐UeGFP and WT‐UeGFP mice were weighed and the required NU‐9 dose per weight was calculated (20 or 100 mg/kg), which was administered once daily by oral gavage, starting at postnatal day (P)60 and continuing until P120. Animals from the untreated group received the vehicle (NMP and olive oil) only. For oral administration purposes, 20 ga × 38 mm plastic feeding tubes were used (Instech Laboratories, Inc). The gavage tip was inserted into the mouth directly over the tongue and into the pharynx. While observing the swallowing reflex, the tip was safely and smoothly slid into the esophagus. Once the administration was completed, the gavage tip was pulled straight out.
Behavior data were collected from hSOD1^G93A‐UeGFP and WT‐UeGFP mice (starting at P60 and every 7 days until P116) and from prpTDP‐43^A315T‐UeGFP mice (at P60, P90, and P120) with the following number of mice for each group: WT‐UeGFP vehicle (n = 10), hSOD1^G93A‐UeGFP vehicle (n = 6), WT‐UeGFP 20 mg/kg/day NU‐9 (n = 5), hSOD1^G93A‐UeGFP 20 mg/kg/day NU‐9 (n = 7), WT‐UeGFP 100 mg/kg/day NU‐9 (n = 11), hSOD1^G93A‐UeGFP 100 mg/kg/day NU‐9 (n = 9), prpTDP‐43^A315T‐UeGFP untreated (n ≥ 3), and prpTDP‐43^A315T‐UeGFP 100 mg/kg/day NU‐9 (n = 4) (Table S3).
Mice were placed on a wire mesh, which was then inverted and suspended above the home cage; the time when the animal fell was recorded. This test was performed three times for a maximum of 60 s each session, with a 1‐min rest period between each trial. The average performance for each session is presented as the average of the three trials.

cytochrome P450s = details: cited from earlier work
[2] = design: method as in PMID 22189273, PMID 22837812; details: cited from earlier work
[3] = tested on: UMNs in the motor cortex of hSOD1^G93A‐UeGFP mice; experiment: UMN quantification in motor cortex, hSOD1^G93A‐UeGFP mice; assay type: in vivo; details: for Mean, Fig. 5E (UMN quantification in motor cortex): hSOD1G93A-UeGFP mice; for average number of UMNs per section in the motor cortex: hSOD1^G93A‐UeGFP mice
Protocol: as §1
Since UMNs are genetically labeled with eGFP expression in the motor cortex of WT‐UeGFP, hSOD1^G93A‐UeGFP, and prpTDP‐43^A315T‐UeGFP mice, UMNs were identified based on the GFP expression. Quantitative analyses were performed on three matched rostrocaudal sections spanning the motor cortex. Three images per subject were taken to capture a 4× objective filed that encompass layer 5 of the motor cortex. An inverted epifluorescent Eclipse TE2000‐E microscope (Nikon) with the same exposure time and intensity was used. UMNs were counted only if their soma and apical dendrite were both visualized in the same 50‐µm thick section. Images were analyzed in ImageJ (NIH) using the Find maxima processing command to determine the local maxima within a predetermined region of interest that circumscribes the layer 5 of the motor cortex. A universal noise tolerance, which ignores the local maxima corresponding to background and autofluorescence, was applied to all images.

[4] = tested on: LMNs in the lumbar spinal cord of hSOD1^G93A‐UeGFP mice; experiment: Lower motor neuron (LMN) quantification in lumbar spinal cord, hSOD1^G93A‐UeGFP mice; assay type: in vivo; details: for Mean, Fig. 8E (LMN quantification in lumbar spinal cord) / Mean, Fig. 8F (LMN quantification in lumbar spinal cord) / Mean, Fig. 8G (LMN quantification in lumbar spinal cord): hSOD1G93A-UeGFP mice; for number of LMNs per section, lumbar spinal cord / number of NeuN^+/ChAT^+ LMNs (vulnerable to degeneration): hSOD1^G93A‐UeGFP mice, P120
Protocol: as §1
A 5‐mm block of lumbar spinal cord was sectioned in 50‐µm thick sections with a vibratome (Leica), and every other section was used for immunohistochemical analysis. LMNs were identified based on their location in the ventral horn and expression of the molecular marker ChAT. 10× Images were captured using an inverted epifluorescent Eclipse TE2000‐E microscope (Nikon). GFP^+/ChAT^+ and NeuN^+/ChAT^+ LMNs were quantified per section. The average number of LMNs per section is reported per mouse with n = 5 mice per group.

[5] = hSOD1G93A-UeGFP vehicle minus NU-9 20 mg/kg/day, Tukey's multiple comparisons test
[6] = hSOD1G93A-UeGFP vehicle minus NU-9 100 mg/kg/day, Tukey's multiple comparisons test

Structure (SMILES): C[C@H](Oc1cc(C(F)(F)F)cc(C(F)(F)F)c1)C1CC(=O)CC(=O)C1 [NU‐9]
- wire hanging, Predicted (LS) mean ([1]; P60, mixed-effects analysis): 56.83
- wire hanging, Predicted (LS) mean ([1]; P90, mixed-effects analysis): 57.17
- wire hanging, Predicted (LS) mean ([1]; P120, mixed-effects analysis): 59.67
- wire hanging, Average ([1]; P60): 55.7778
- wire hanging, Average ([1]; P90): 56.2222
- wire hanging, Average ([1]; P120): 59.5556
- hanging wire test, latency to fall ([1]; prpTDP‐43^A315T mice, 100 mg/kg/day, P120): 59.5 ± 0.3 s
- CYP inhibition (cytochrome P450s; 5 CYPs, at 3 µM): 5 CYPs; <10% at 3 µM
- inhibition of cytochrome P450s (cytochrome P450s): little inhibition
- Plasma protein binding [2]: 90%
- Mean, Fig. 5E (UMN quantification in motor cortex) ([3]; NU-9 20 mg/kg/day): 21.06
- Mean, Fig. 5E (UMN quantification in motor cortex) ([3]; NU-9 100 mg/kg/day): 46.43
- Mean Diff., Fig. 5E, GS Vehicle vs. GS NU-9 (20) [3, 5]: -16.12
- Mean Diff., Fig. 5E, GS Vehicle vs. GS NU-9 (100) [3, 6]: -41.49
- average number of UMNs per section in the motor cortex ([3]; 20 mg/kg/day oral gavage P60–P120): 21 ± 5 UMN
- average number of UMNs per section in the motor cortex ([3]; 100 mg/kg/day oral gavage P60–P120): 46 ± 3 UMN
- Mean, Fig. 8E (LMN quantification in lumbar spinal cord) ([4]; NU-9 20 mg/kg/day): 12.11
- Mean, Fig. 8F (LMN quantification in lumbar spinal cord) ([4]; NU-9 20 mg/kg/day): 6.506
- Mean, Fig. 8G (LMN quantification in lumbar spinal cord) ([4]; NU-9 20 mg/kg/day): 18.62
- Mean, Fig. 8E (LMN quantification in lumbar spinal cord) ([4]; NU-9 100 mg/kg/day): 9.708
- Mean, Fig. 8F (LMN quantification in lumbar spinal cord) ([4]; NU-9 100 mg/kg/day): 4.426
- Mean, Fig. 8G (LMN quantification in lumbar spinal cord) ([4]; NU-9 100 mg/kg/day): 14.13
- Mean Diff., Fig. 8E, GS Vehicle vs. GS NU-9 (20) [4, 5]: -1.853
- Mean Diff., Fig. 8F, GS Vehicle vs. GS NU-9 (20) [4, 5]: 0.3602
- Mean Diff., Fig. 8G, GS Vehicle vs. GS NU-9 (20) [4, 5]: -1.493
- Mean Diff., Fig. 8E, GS Vehicle vs. GS NU-9 (100) [4, 6]: 0.5524
- Mean Diff., Fig. 8F, GS Vehicle vs. GS NU-9 (100) [4, 6]: 2.44
- Mean Diff., Fig. 8G, GS Vehicle vs. GS NU-9 (100) [4, 6]: 2.992
- number of LMNs per section, lumbar spinal cord ([4]; 20 mg/kg/day): 18.6 ± 0.4 LMN
- number of NeuN^+/ChAT^+ LMNs (vulnerable to degeneration) ([4]; 20 mg/kg/day): 12.1 ± 0.4 LMN
- number of LMNs per section, lumbar spinal cord ([4]; 100 mg/kg/day): 14.1 ± 1.3 LMN
- number of NeuN^+/ChAT^+ LMNs (vulnerable to degeneration) ([4]; 100 mg/kg/day): 9.7 ± 0.9 LMN
- numbers of GFP^+ and ChAT^+ LMN (resistant to degeneration) ([4]; regardless of genotype or treatment): comparable
